Calls of active or inactive are those of the source.
Experiments:
Escherichia coli = test: microbe, parasite or virus in culture
[1] = biological target: T1, Low molecular weight phosphotyrosine protein phosphatase (Homo sapiens, UniProt P24666); assay type: functional; details: read-out: IC50_Mean;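 further: Dose-response confirmation assay measuring inhibition of LMPTP enzyme activity by fluorescence intensity read-out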
T1 sequence (P24666 whole entry): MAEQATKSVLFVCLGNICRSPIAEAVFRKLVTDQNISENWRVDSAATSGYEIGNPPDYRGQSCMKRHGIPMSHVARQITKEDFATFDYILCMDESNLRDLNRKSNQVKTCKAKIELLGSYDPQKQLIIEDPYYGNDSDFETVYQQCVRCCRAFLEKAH

Cytochrome P450 1A2 = biological target: T2, Cytochrome P450 1A2 (Homo sapiens, UniProt P05177);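 further: PubChem cytochrome P450 panel assay, CYP1A2 panel member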
T2 sequence (P05177 whole entry): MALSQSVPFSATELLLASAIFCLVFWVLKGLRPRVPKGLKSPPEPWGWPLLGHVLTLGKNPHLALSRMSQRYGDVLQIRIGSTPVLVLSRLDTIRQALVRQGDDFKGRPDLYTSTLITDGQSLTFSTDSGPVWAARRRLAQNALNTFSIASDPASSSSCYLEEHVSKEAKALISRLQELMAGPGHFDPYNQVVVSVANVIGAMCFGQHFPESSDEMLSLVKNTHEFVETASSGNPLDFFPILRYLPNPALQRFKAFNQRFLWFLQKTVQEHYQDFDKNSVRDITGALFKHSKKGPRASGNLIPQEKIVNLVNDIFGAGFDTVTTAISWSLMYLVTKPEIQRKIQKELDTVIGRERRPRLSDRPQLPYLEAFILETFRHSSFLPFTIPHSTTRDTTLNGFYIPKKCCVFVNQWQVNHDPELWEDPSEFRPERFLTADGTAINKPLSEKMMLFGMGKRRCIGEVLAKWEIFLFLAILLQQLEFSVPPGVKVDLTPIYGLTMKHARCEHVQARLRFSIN

Cytochrome P450 3A4 = Cytochrome P450 3A4 (Homo sapiens, UniProt P08684);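 further: CYP3A4 tested as one member of a cytochrome P450 panel screen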
[2] = insulin promoter down-regulators in MIN6 cells, imaging, high-content screening, mouse beta cells (AID 1628); assay type: functional
Streptococcus = test: Group A Streptococcus viability loss, dose response, counter-screen for streptokinase expression inhibitor project, luminescence, BacTiterGlo (AID 1915); assay type: functional, organism-based;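 further: potency for reduction of bacterial viability or growth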
Streptokinase A = biological target: T3, Streptokinase A (Streptococcus pyogenes serotype M1, UniProt P10520); test: S. pyogenes streptokinase expression inhibitors, potency, dose response, plasminogen activation absorbance, OD405 (AID 1914); assay type: functional, Streptococcus pyogenes M1 GAS;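 further: secreted streptokinase activity via plasminogen activation per viability signal from cell pellet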
T3 sequence (P10520 whole entry): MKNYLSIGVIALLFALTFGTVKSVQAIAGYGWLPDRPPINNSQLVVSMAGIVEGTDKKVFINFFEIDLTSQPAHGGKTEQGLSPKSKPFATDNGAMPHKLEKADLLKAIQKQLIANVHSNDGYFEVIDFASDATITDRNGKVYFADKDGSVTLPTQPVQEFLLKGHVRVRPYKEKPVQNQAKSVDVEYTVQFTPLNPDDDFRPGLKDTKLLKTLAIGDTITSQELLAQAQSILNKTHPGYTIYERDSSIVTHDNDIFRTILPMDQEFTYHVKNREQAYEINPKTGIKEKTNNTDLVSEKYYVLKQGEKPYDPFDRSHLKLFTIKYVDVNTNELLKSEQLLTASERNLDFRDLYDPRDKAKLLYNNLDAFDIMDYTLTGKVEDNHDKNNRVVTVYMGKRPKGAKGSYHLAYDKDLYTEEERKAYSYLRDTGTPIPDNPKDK

[3] = system: Streptococcus sp. 'group A'; test: growth inhibition of control SK(-) GAS strain, dose response, counter-screen for streptokinase expression inhibitor project, luminescence, kanamycin, BacTiterGlo, confirmation (AID 1900); assay type: functional, organism-based
[4] = Shn3 3'UTR reporter inhibitors, dose response, cell-based, Clone20 osteoblasts, firefly luciferase, cherry-picked (AID 624132); assay type: functional;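 further: firefly luciferase luminescence from reporter carrying the Shn3 3'UTR in osteoblasts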
[5] = cytotoxicity in MIN6 insulinoma cells, dose response, cytotoxicity control, cell-based, mouse insulinoma (AID 2122); assay type: functional;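 further: confirmatory high-throughput counterscreen run to flag cytotoxic compounds; mouse MIN-6 beta cells carrying an insulin promoter eGFP reporter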
Vero [6] = test: cells; assay type: functional; details: Chlorocebus sabaeus
INS1 = test: beta cell apoptosis inhibitors, cytokine rescue, dose response, luminescence, retest (AID 449756); assay type: functional, cell-based; details: Rattus norvegicus;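 further: cell death triggered by IL-1 beta plus TNF-alpha plus IFN-gamma mixture; protective hits raise ATP signal compared with cytokine alone wells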
[7] = HepG2 cell cytotoxicity, dose response, cytotoxicity control for Shn3 inhibitor project, CellTiter-Glo, cherry-picked (AID 624134); assay type: functional, cell-based
[8] = control 3'UTR Renilla luciferase suppression, dose response, counter-screen for Shn3 inhibitor project, cell-based, Clone20-Shn3RL, cherry-picked (AID 624133); assay type: functional
[9] = HEp-2 cell cytotoxicity, dose response, cytotoxicity control for RSV inhibitor project, HTS (AID 2410); assay type: functional; details: human respiratory syncytial virus
Vero [10] = test: cells; assay type: functional, cell-based; details: Chlorocebus sabaeus
Cytochrome P450 2D6 = Cytochrome P450 2D6 (Homo sapiens, UniProt P10635);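 further: CYP2D6 member of a cytochrome P450 panel assay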
CAAX prenyl protease 2 = biological target: T4, CAAX prenyl protease 2 (Homo sapiens, UniProt Q9Y256); test: human Rce1 protease inhibitors, dose response, biochemical, yeast membranes, quenched-peptide fluorescence, cherry-pick (AID 588849)
T4 sequence (Q9Y256 whole entry): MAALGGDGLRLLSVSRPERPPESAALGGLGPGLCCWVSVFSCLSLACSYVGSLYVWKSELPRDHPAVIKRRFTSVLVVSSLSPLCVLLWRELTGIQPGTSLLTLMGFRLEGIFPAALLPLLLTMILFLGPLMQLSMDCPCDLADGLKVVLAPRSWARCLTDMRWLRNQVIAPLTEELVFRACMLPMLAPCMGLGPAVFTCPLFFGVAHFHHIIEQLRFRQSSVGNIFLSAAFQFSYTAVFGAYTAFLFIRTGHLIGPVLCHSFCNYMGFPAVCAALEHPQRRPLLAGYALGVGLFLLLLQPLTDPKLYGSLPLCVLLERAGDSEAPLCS

Chain of Cytochrome P450 3A4 (P08684 whole entry): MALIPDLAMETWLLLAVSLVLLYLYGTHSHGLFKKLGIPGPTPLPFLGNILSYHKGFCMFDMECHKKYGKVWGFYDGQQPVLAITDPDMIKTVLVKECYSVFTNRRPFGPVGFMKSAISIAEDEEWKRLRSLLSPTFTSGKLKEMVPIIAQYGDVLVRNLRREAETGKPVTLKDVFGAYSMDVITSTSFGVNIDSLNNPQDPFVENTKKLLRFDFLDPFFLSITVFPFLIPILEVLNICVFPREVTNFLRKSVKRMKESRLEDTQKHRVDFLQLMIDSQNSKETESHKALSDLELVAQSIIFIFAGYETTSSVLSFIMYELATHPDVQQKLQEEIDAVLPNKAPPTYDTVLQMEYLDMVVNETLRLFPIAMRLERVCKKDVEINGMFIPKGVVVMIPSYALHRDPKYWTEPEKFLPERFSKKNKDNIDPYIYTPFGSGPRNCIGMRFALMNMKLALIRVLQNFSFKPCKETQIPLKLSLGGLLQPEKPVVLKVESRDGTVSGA
Chain of Cytochrome P450 2D6 (P10635 whole entry): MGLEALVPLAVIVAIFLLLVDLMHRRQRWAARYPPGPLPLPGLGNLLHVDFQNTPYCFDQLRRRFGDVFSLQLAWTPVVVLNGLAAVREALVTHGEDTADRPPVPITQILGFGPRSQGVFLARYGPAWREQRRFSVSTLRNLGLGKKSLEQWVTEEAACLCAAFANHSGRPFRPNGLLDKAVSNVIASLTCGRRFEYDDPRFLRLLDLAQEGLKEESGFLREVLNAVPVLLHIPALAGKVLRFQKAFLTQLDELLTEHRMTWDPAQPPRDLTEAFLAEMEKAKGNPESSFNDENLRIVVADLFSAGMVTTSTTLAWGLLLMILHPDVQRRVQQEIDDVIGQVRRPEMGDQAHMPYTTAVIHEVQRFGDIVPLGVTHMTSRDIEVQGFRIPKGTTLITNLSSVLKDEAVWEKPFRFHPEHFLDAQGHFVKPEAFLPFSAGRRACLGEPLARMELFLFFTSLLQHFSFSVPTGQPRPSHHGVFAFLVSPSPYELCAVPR

**Q.** Which results are given for `CCn1cc(C(=O)O)c(=O)c2cc(F)c(N3CCN(C(=S)NC(=O)c4ccc(OC)cc4)CC3)cc21`?
**A.** AC50 (Escherichia coli): 8.97 µM (active); IC50 [1]: 7.26 µM (active)

**Q.** With `O=C(c1cnccn1)N1CCC2(CC1)CCN(C(c1ccccc1)c1ccccc1)CC2` as the molecule, how does the AC50 (Cytochrome P450 1A2) read?
**A.** 10 µM (inconclusive)

**Q.** And the AC50 (Cytochrome P450 3A4)?
**A.** inconclusive

**Q.** With `Cn1cccc1C(=O)N1CCC2(CCN(Cc3nccs3)CC2)CC1` as the molecule, how does the AC50 (Cytochrome P450 3A4) read?
**A.** inconclusive

**Q.** With `Cc1ccn(C(=O)c2ccc(NC(=O)C3CC3)cc2)n1` as the molecule, how does the AC50 (Escherichia coli) read?
**A.** 22.3 µM (active)

**Q.** For `CC1=NN(c2nc3ccccc3[nH]2)C(=O)C1Cc1ccccc1` (stereo unspecified), which IC50 [2] is on record?
**A.** 1.53 µM (active)

**Q.** And the EC50 (Streptococcus)?
**A.** > 150 µM (not active)

**Q.** What about the EC50 (Streptokinase A) of the same molecule?
**A.** > 150 µM (not active)

**Q.** What about the EC50 [3] of the same molecule?
**A.** 1.17 µM (active)

**Q.** And the AC50 [4]?
**A.** 4.11 µM (active)

**Q.** What about the IC50 [5] of the same molecule?
**A.** 1.43 µM (active)

**Q.** And the CC50 (Vero [6])?
**A.** 2.92 µM (active)

**Q.** What about the AC50 (INS1) of the same molecule?
**A.** 1.43 µM (active)

**Q.** What about the AC50 [7] of the same molecule?
**A.** > 70 µM (inactive)

**Q.** What about the AC50 [8] of the same molecule?
**A.** 2.6 µM (active)

**Q.** What does the source list for `Cc1cccc(NC(=O)CSc2nc3ccccc3nc2N2CCCCC2)c1`?
**A.** CC50 [9]: 10.3 µM (active); IC50 (cells): 9 µM (active); CC50 (Vero [6]): > 25 µM (active); IC50 (Vero [10]): 9.16 µM (active)

**Q.** For `O=C(Oc1ccccc1)N1CCC2(CCN(Cc3ccccc3)CC2)CC1`, which AC50 (Cytochrome P450 2D6) is on record?
**A.** 39.8 µM (inconclusive)

**Q.** And the AC50 (Cytochrome P450 3A4)?
**A.** inconclusive

**Q.** With `CC(=O)/C(C#N)=C1\NC(=O)C(Cc2ccccc2)S1` (stereo unspecified) as the molecule, how does the CC50 [9] read?
**A.** 14.4 µM (active)

**Q.** And the IC50 (cells)?
**A.** 5.09 µM (active)

**Q.** And the IC50 (Vero [10])?
**A.** 9.17 µM (active)

**Q.** For `COC(C/C=C/[C@@H](O)[C@H](C)OCc1ccccc1)OC`, which AC50 (CAAX prenyl protease 2) is on record?
**A.** 16.5 µM (active)

From ChEMBL document CHEMBL1201862, “PubChem BioAssay data set” (2004)
